Laboratory results: US10995070B2, “Acetyl-CoA carboxylase modulators” (Monsanto Technology LLC, priority 2013, dated 2021)

Columns and labels:
Saccharomyces cerevisiae = test: Yeast growth inhibition assay; format: cell-based; settings: read-out: S. cerevisiae % growth inhibition
Description: Yeast cells (Ade2 strain) were grown in liquid YPD (1% yeast extract, 2% peptone, 2% dextrose) for 16 hours at 30° C. from previously sub-cultured plates of Saccharomyces cerevisiae. The OD600 of the overnight culture was checked via spectrophotometer and diluted to a concentration of 2×10^4 cells/ml.
Chemistry stocks were dissolved in DMSO to a concentration of 10 mM. Chemistry stocks were further diluted in a 96-well stock plate to obtain final concentrations of […] in 1% DMSO. The final concentrations of the soraphen positive control were 400, 40, and 3.2 nM. The negative controls on each plate included a background subtraction control containing yeast and 1% DMSO (without chemistry) and a second contamination control containing YPD (with no yeast) and 1% DMSO (without chemistry).
98 μl liquid YPD was added to 2 μl diluted stock of DMSO per well and mixed thoroughly. After mixing, 100 μl of the diluted yeast solution was added to bring the final yeast concentration to 1×10^4 cells/ml or 2000 cells per well. An initial spectrophotometric reading at OD600 was conducted on the entire plate and served as the 0 hours time point used to subtract any background. […] […] […] All experiments were conducted in triplicate. Averages were reported along with standard deviation calculation to generate error bars. Each plate contained its own controls and consisted of inoculated+DMSO, non-inoculated+DMSO, and a titration series of soraphen at 400, 40, and 3.2 nM.

Botrytis cinerea = test: Fungal growth inhibition assay, B. cinerea; format: cell-based; settings: 48 h
Description: Spores were isolated from previously sub-cultured plates of Botrytis cinerea, Phytophthora capsici, Fusarium moniliforme, Fusarium viguliforme, Collectotrichum graminicola, and Diplodia maydis. All spores were filtered and collected in a sterile glass bowl to isolate the spores from the mycelia. The isolation and sub-culture plate condition for each pathogen is described below.
Spore isolation for B. cinerea: A 2-3 week old V8 (17%)+CaCO3 (3 g/L)+20 g agar plate was removed from room temperature and the mycelia were treated with 5-10 ml of filter sterilized Triton X 100 (0.05%). The mycelia were scraped to re-suspend the spores. The spores were then collected in a sterile filter bowl containing a fluted piece of filter paper and poured into a conical tube.
After spore isolation, pathogen spores were counted on a hemocytometer to calculate the spores/ml. In 17% V8 liquid media containing 3 g/L CaCO3, isolated spores were diluted to individual concentrations based on the growth curves at 48 hours of each pathogen. The spore concentrations for each pathogen were as follows: B. cinerea—10,000 sp/ml; P. capsici—300 sp/ml; F. monliforme—500 sp/ml; F. virguliforme—500 sp/ml; C. graminicola—3,000 sp/ml; and D. maydis—3,000 sp/ml.
Chemistry stocks were dissolved in DMSO at 2.5 mg/ml. Chemistry was diluted in a 96-well stock plate in five-fold dilutions to obtain a final concentration of 50, 10, and 2 ppm in vitro. The final concentration of the positive control after the five-fold dilutions was as follows: soraphen—0.5, 0.1, and 0.02 ppm. Negative controls on each plate included 2% DMSO, water containing spores and media, and a blank for background subtraction.
In a 96-well plate the spore solution, chemistries, and controls were combined to make the final solution concentrations mentioned above. Upon addition of the chemistry, an OD600 reading was done to assess chemical precipitation. […] Plate readings were repeated at 24 and 48 hrs. […]

SMILES	inhibition at 3.7 µM (Saccharomyces cerevisiae)	inhibition at 11.1 µM (Saccharomyces cerevisiae)	inhibition at 33.3 µM (Saccharomyces cerevisiae)	inhibition at 100 µM (Saccharomyces cerevisiae)	inhibition at 2 ppm (Botrytis cinerea; 2 ppm)	inhibition at 10 ppm (Botrytis cinerea; 10 ppm)	inhibition at 50 ppm (Botrytis cinerea; 50 ppm)
O=C(O)Cc1ccc(-c2nc3ccccc3c(-c3ccccc3)c2Cl)s1 [Formula Ib-ii, 2-(5-(3-chloro-4-phenylquinolin-2-yl)thiophen-2-yl)acetic acid]	0%	0%	55%	79%	–	–	–
O=C(O)Cc1ccc(-c2cc(-c3ccccc3)c3ccccc3n2)s1 [Formula Ib-iv, 2-(5-(4-phenylquinolin-2-yl)thiophen-2-yl)acetic acid]	0%	0%	15%	99%	0%	1%	42%
